Values joined by “and” are separate entries in the source; they are usually repeats but may differ in a detail not shown here. Equal entries are not always repeated.
Test system: HL60 (human promyelocytic leukemia) cells
Assay: LMA-FlexMAP analysis of microtiter well cultures of HL60 cells treated with tretinoin or DMSO, KNN classification
[1] = HL60 microtiter plate wells tretinoin40-47 (replicates)

## CC1=C(/C=C/C(C)=C/C=C/C(C)=C/C(=O)O)C(C)(C)CCC1 [tretinoin, all-trans-retinoic acid]
[1]
  NM_000698 LUA#14 FlexMap level: 45.5 and 156 and 269 and 394 and 342 and 297.5 and 363 and 352
  NM_000875 LUA#55 FlexMap level: 184 and 1002 and 1389.5 and 1772 and 1303 and 1192 and 1271 and 810
  NM_000884 LUA#81 FlexMap level: 82 and 506 and 875 and 897 and 732.5 and 789 and 805 and 513.5
  NM_000962 LUA#7 FlexMap level: 63.5 and 391 and 761 and 776 and 470 and 646.5 and 671.5 and 452
  NM_001034 LUA#67 FlexMap level: 65 and 447 and 989 and 779 and 733.5 and 645 and 1063 and 476
  NM_001101 LUA#34 FlexMap level: 260.5 and 1606 and 2206 and 2257 and 1647 and 1943 and 1881 and 904
  NM_001469 LUA#79 FlexMap level: 65 and 320.5 and 885 and 739 and 765 and 734 and 561 and 370
  NM_001498 LUA#18 FlexMap level: 126.5 and 890.5 and 1632 and 1563.5 and 1134 and 1467 and 1510 and 888
  NM_001684 LUA#23 FlexMap level: 884 and 3012 and 3316.5 and 3512 and 3036 and 2755.5 and 2662 and 1478
  NM_001948 LUA#84 FlexMap level: 255 and 1430 and 2470.5 and 2273.5 and 1891 and 2131 and 2132.5 and 1104
  NM_001974 LUA#11 FlexMap level: 38.5 and 98 and 351 and 256 and 258 and 253.5 and 286.5 and 224
  NM_002166 LUA#25 FlexMap level: 411.5 and 1693.5 and 2999 and 2964 and 2068 and 1985 and 2518 and 1239
  NM_002358 LUA#53 FlexMap level: 64 and 339 and 572 and 611 and 366 and 481 and 531 and 433
  NM_002467 LUA#90 FlexMap level: 383 and 983.5 and 1643 and 1800 and 1920 and 1518 and 1725 and 1034
  NM_002468 LUA#40 FlexMap level: 48 and 285.5 and 324 and 728 and 896.5 and 343 and 632 and 464
  NM_002539 LUA#74 FlexMap level: 94 and 559 and 886 and 952 and 715 and 861.5 and 822 and 535
  NM_002624 LUA#36 FlexMap level: 53 and 180.5 and 397 and 381 and 330.5 and 336 and 400.5 and 394
  NM_002664 LUA#38 FlexMap level: 73 and 478 and 906 and 798 and 599 and 773 and 748 and 512
  NM_002970 LUA#42 FlexMap level: 92 and 298 and 598 and 589 and 622.5 and 577.5 and 586 and 478
  NM_002982 LUA#45 FlexMap level: 286 and 2331 and 2514 and 4037 and 4231 and 2722 and 2898 and 1696.5
  NM_003132 LUA#68 FlexMap level: 41 and 126 and 264.5 and 264 and 195.5 and 257 and 296 and 327.5
  NM_003172 LUA#19 FlexMap level: 818 and 3200.5 and 3348 and 3577.5 and 2983 and 2898 and 2747 and 1471
  NM_003332 LUA#43 FlexMap level: 274 and 646 and 1341.5 and 1324 and 1984.5 and 1651 and 2226 and 1241.5
  NM_003581 LUA#62 FlexMap level: 62.5 and 372 and 962 and 808 and 751 and 735.5 and 801 and 515
  NM_003644 LUA#17 FlexMap level: 69 and 255 and 415 and 428 and 359 and 374 and 395 and 302
  NM_003752 LUA#82 FlexMap level: 115.5 and 536.5 and 1061 and 1015.5 and 768.5 and 1020 and 912.5 and 596
  NM_003825 LUA#8 FlexMap level: 81.5 and 192.5 and 338 and 383.5 and 307.5 and 331 and 502 and 476.5
  NM_003879 LUA#24 FlexMap level: 225 and 1355.5 and 1937.5 and 1983.5 and 1275 and 1677 and 1564 and 923
  NM_004079 LUA#21 FlexMap level: 350 and 2202 and 3008 and 3030.5 and 2326 and 2816 and 2701 and 1488
  NM_004095 LUA#59 FlexMap level: 72 and 383 and 714 and 665 and 496.5 and 650.5 and 593.5 and 442
  NM_004106 LUA#44 FlexMap level: 47 and 142 and 253.5 and 302 and 321 and 271 and 273.5 and 267
  NM_004134 LUA#76 FlexMap level: 78 and 432.5 and 873 and 866 and 531 and 759 and 744 and 493
  NM_004152 LUA#31 FlexMap level: 58 and 337 and 710 and 811 and 628.5 and 782 and 652 and 408.5
  NM_004514 LUA#46 FlexMap level: 176 and 834 and 1159.5 and 1224 and 964 and 992 and 1017 and 626
  NM_004526 LUA#88 FlexMap level: 642 and 1081.5 and 1122 and 840 and 1033 and 1012 and 641.5
  NM_004602 LUA#32 FlexMap level: 458.5 and 678 and 736.5 and 1957 and 1765.5 and 664 and 571.5 and 773.5
  NM_004631 LUA#52 FlexMap level: 86.5 and 322 and 705 and 629 and 524 and 633 and 667 and 532
  NM_004723 LUA#20 FlexMap level: 89 and 620 and 1056 and 982 and 761 and 886 and 853 and 494.5
  NM_004741 LUA#89 FlexMap level: 131 and 383 and 972 and 1003 and 933 and 920 and 1126 and 571
  NM_004759 LUA#37 FlexMap level: 40.5 and 67.5 and 186.5 and 169 and 134.5 and 142 and 145 and 190
  NM_004782 LUA#4 FlexMap level: 163 and 811 and 1306 and 1264 and 1063.5 and 1077 and 1094 and 639
  NM_005008 LUA#77 FlexMap level: 73 and 425 and 885 and 923 and 779.5 and 801 and 828 and 525
  NM_005375 LUA#86 FlexMap level: 273 and 1380 and 2455 and 2357.5 and 2068 and 2193 and 2264 and 1273.5
  NM_005566 LUA#85 FlexMap level: 129.5 and 862.5 and 1842.5 and 1550 and 1000 and 1282 and 1196 and 592
  NM_005736 LUA#1 FlexMap level: 92 and 522 and 909 and 1432 and 1896 and 847 and 1205.5 and 695
  NM_005914 LUA#60 FlexMap level: 303 and 1363 and 2538.5 and 2273 and 1739 and 1694 and 1933.5 and 1154.5
  NM_005915 LUA#72 FlexMap level: 48 and 300 and 495 and 474 and 315.5 and 496 and 401.5 and 256.5
  NM_005952 LUA#66 FlexMap level: 104 and 573 and 891 and 961 and 623.5 and 847.5 and 775 and 571
  NM_005980 LUA#73 FlexMap level: 35.5 and 83 and 102 and 162 and 149 and 95 and 114 and 168
  NM_006019 LUA#35 FlexMap level: 41 and 192.5 and 363 and 400.5 and 353 and 361 and 402 and 332
  NM_006138 LUA#56 FlexMap level: 70 and 325.5 and 443 and 659.5 and 488 and 437 and 429 and 341
  NM_006432 LUA#27 FlexMap level: 90 and 394 and 854.5 and 800 and 695 and 670 and 719 and 450
  NM_006452 LUA#71 FlexMap level: 207.5 and 1176 and 1736 and 1656.5 and 1374 and 1531 and 1587 and 911.5
  NM_006457 LUA#13 FlexMap level: 36 and 51 and 83 and 94 and 84 and 95 and 132 and 200
  NM_006773 LUA#47 FlexMap level: 164 and 717 and 1137 and 1120.5 and 783 and 937.5 and 907 and 576.5
  NM_006948 LUA#51 FlexMap level: 34 and 49 and 82 and 95 and 83 and 79.5 and 85.5 and 106.5
  NM_006985 LUA#58 FlexMap level: 90 and 720 and 1223 and 1310 and 813 and 1136.5 and 983 and 635
  NM_007282 LUA#16 FlexMap level: 778.5 and 3067.5 and 3626 and 3678 and 3097 and 3055 and 2958.5 and 1505
  NM_007331 LUA#50 FlexMap level: 88 and 474 and 915.5 and 927.5 and 770 and 739 and 835 and 583
  NM_013402 LUA#54 FlexMap level: 114 and 705 and 1150 (2×) and 806 and 1051.5 and 1087 and 711
  NM_014288 LUA#48 FlexMap level: 154 and 477.5 and 801 and 816 and 527.5 and 706 and 650 and 453
  NM_014333 LUA#26 FlexMap level: 180.5 and 949.5 and 1577 and 1549 and 1309 and 1337 and 1390 and 811
  NM_014366 LUA#61 FlexMap level: 383 and 1773 and 2236 and 2380 and 1850 and 1787.5 and 1681.5 and 1009.5
  NM_014573 LUA#70 FlexMap level: 43 and 143 and 320 and 325 and 274 and 243 and 407.5 and 300
  NM_014962 LUA#5 FlexMap level: 152.5 and 726 and 1269 and 1290 and 1213 and 1076 and 1134 and 717
  NM_015201 LUA#57 FlexMap level: 182 and 1154 and 1768 and 1714 and 1251 and 1398.5 and 1507 and 930.5
  NM_016061 LUA#9 FlexMap level: 134 and 674 and 1086 and 1267.5 and 863 and 975 and 1073.5 and 741
  NM_017440 LUA#49 FlexMap level: 101 and 405.5 and 707 and 774 and 716 and 607 and 693 and 477
  NM_018115 LUA#63 FlexMap level: 746.5 and 3193 and 3722 and 4141 and 3225.5 and 3292.5 and 3054 and 1569
  NM_018164 LUA#69 FlexMap level: 52 and 170 and 429 and 380 and 304.5 and 304 and 358.5 and 234
  NM_018217 LUA#3 FlexMap level: 189 and 990 and 1514 and 1581 and 1499 and 1286 and 1386 and 854.5
  NM_018256 LUA#83 FlexMap level: 102 and 717 and 1252 and 1104 and 692.5 and 1077 and 929 and 470
  NM_018890 LUA#33 FlexMap level: 562 and 2557 and 3812.5 and 4178 and 4310 and 3724.5 and 2984 and 1462.5
  NM_019058 LUA#75 FlexMap level: 258 and 1804 and 2807 and 2882 and 2288 and 2430 and 2201 and 1184
  NM_020117 LUA#78 FlexMap level: 236.5 and 1585 and 2193 and 2242.5 and 1690 and 1988 and 1734 and 848.5
  NM_021103 LUA#41 FlexMap level: 591.5 and 1730 and 2238 and 2731 and 2283 and 1975 and 1828.5 and 1027
  NM_021203 (LUA#80) FlexMap level: 53 and 171 and 386 and 377.5 and 283.5 and 348 and 279
  NM_021974 LUA#64 FlexMap level: 268 and 1606 and 2307 and 2301 and 1472 and 1996 and 1890 and 1117.5
  NM_024045 LUA#65 FlexMap level: 85 and 495 and 831 and 833.5 and 527 and 681 and 728.5 and 471
  NM_032571 LUA#15 FlexMap level: 31 and 109 and 203 and 222.5 and 165.5 and 191 and 270.5 and 253.5
  NM_173823 LUA#6 FlexMap level: 84 and 594.5 and 1106.5 and 1168.5 and 1130.5 and 1080 and 1163 and 807
  TFRC LUA#92 FlexMap level: 89 and 400 and 794 and 910.5 and 811 and 827.5 and 1042 and 592
HL60 microtiter well cultures, one value per tretinoin well
  NM_021203 (LUA#80) FlexMap level: 416 and 381.5 and 345 and 387 and 409 and 426 and 427 and 412

— US20110015080A1, “Solution-based methods for RNA expression profiling” (MASSACHUSETTS INSTITUTE OF TECHNOLOGY, priority 2005, published 2011)
